Assay results taken from PMC3576842 (Cancer discovery, 2012).
“Also recorded” adds a separate entry of the source.

Legend:
[1] = tested on: PC-9/ER cells; assay: Anti-proliferative response of erlotinib-resistant PC-9 clone; conditions: 10 μM erlotinib
[2] = tested on: PC-9 cells; assay: High-throughput tumor cell line screening / cell viability assay; type: cell-based, human; conditions: for effect on growth: even at high concentrations
[3] = tested on: HCC827 cells; assay: as above; type: cell-based, human
[4] = molecular target: EGFR L858R/T790M in NR6 cells (Homo sapiens, UniProt P00533, L858R/T790M); assay: Ligand-induced; type: cell-based; conditions: 16 hr, TGF-α 15 min
[5] = molecular target: recombinant EGFR T790M (Homo sapiens, UniProt P00533, T790M); assay: EGFR autophosphorylation assay; type: biochemical; conditions: for inhibition of EGFR T790M autophosphorylation: ATP, 15 min; for concentrations as low as which inhibit EGFR T790M autophosphorylation: EGFR T790M mutants
[6] = PKC412 225 mg/d for 28 days, solid tumor tissues; cited from earlier work
[7] = tested on: PC-9/ER xenografts (EGFR del E746_A750/T790M); assay: PC-9/ER xenograft study; conditions: for tumor growth: daily oral gavage for 21 days, PKC412 100 mg/kg, WZ4002 25 mg/kg
[8] = molecular target: EGFR del E746_A750/T790M in erlotinib-resistant PC-9 cells (Homo sapiens, UniProt P00533, DEL746-750/T790M); assay: Drug wash-out assay; type: cell-based
[9] = tested on: lung adenocarcinomas driven by EGFR L858R/T790M; assay: Genetically engineered NSCLC model; type: in vivo, mice
[10] = tested on: NCI-H1975 tumor xenografts (EGFR L858R/T790M); assay: NCI-H1975 xenograft study; type: in vivo, Balb/c nude mice
[11] = molecular target: wild-type EGFR in NR6 cells (Homo sapiens, UniProt P00533); assay: Ligand-induced; type: cell-based; conditions: for inhibition of ligand-induced EGFR phosphorylation: NR6 wild-type EGFR, TGF-α
[12] = molecular target: recombinant EGFR L858R/T790M (Homo sapiens, UniProt P00533, L858R/T790M); assay: EGFR autophosphorylation assay; type: biochemical; conditions: ATP, 15 min
[13] = in vivo; conditions: athymic nude, mouse, plasma, oral, 100 mg/kg
[14] = tested on: HCC827 cells (EGFR del E746_A750); assay: EGFR signaling and apoptosis immunoblotting in HCC827 cells; type: cell-based, human
[15] = tested on: PC-9 cells (EGFR del E746_A750); assay: EGFR signaling and apoptosis immunoblotting in PC-9 cells; type: cell-based, human
[16] = tested on: EGFR delE746_A750 mutant lines (PC-9, HCC827, HCC4006); assay: Cell viability assay; type: cell-based, human; conditions: read-out: IC50 cell viability; 72 hr; 3 NSCLC lines with EGFR delE746_A750
[17] = tested on: NCI-H1975 cells (EGFR L858R/T790M); assay: Cell viability assay; type: cell-based, human; conditions: read-out: IC50 cell viability; 72 hr; L858R/T790M mutant line
[18] = molecular target: recombinant EGFR wild-type (Homo sapiens, UniProt P00533); assay: EGFR autophosphorylation assay; type: biochemical
[19] = molecular target: EGFR del E746_A750/T790M in NR6 cells (Homo sapiens, UniProt P00533, DEL746-750/T790M); assay: Ligand-induced; type: cell-based; conditions: 16 hr, TGF-α 15 min
[20] = human, in vivo; cited from earlier work
[21] = 1 μM, 72 hr, strong sensitivity defined as greater than 70% growth suppression

C#Cc1cccc(Nc2ncnc3cc(OCCOC)c(OCCOC)cc23)c1 [erlotinib]
anti-proliferative response [1]: no anti-proliferative response

CN(C)CCCn1cc(C2=C(c3c[nH]c4ccccc34)C(=O)NC2=O)c2ccccc21 [bis-indolylmaleimide I]
effect on growth [2]: failed to detectably affect growth | effect on growth ([3]; even at high concentrations): failed to detectably affect growth

CO[C@@H]1[C@H](N(C)C(=O)c2ccccc2)C[C@H]2O[C@]1(C)n1c3ccccc3c3c4c(c5c6ccccc6n2c5c31)C(=O)NC4 [PKC412]
inhibition of ligand-induced EGFR phosphorylation [4]: similarly potent ability to inhibit | inhibition of EGFR T790M autophosphorylation [5]: potently inhibit | concentrations as low as which inhibit EGFR T790M autophosphorylation [5]: 3 to 30 nM | tissue concentration (median) [6]: 593 nM | EGFR signaling in tumors after the last dosing ([7]; Day 21, 4 hours after the last dosing): effective suppression of EGFR signaling | body weight loss ([7]; daily oral 100 mg/kg, 21 days): no significant body weight loss | tumor growth [7]: tumors began to regress; also recorded: significant tumor regression | nature of inhibition (recovery of pEGFR after wash-out) [8]: reversible | weight loss ([9]; 4 weeks of PKC412 treatment): No significant weight loss | tumor growth ([9]; 4 weeks of treatment): growth inhibited for the first two weeks of treatment | phosphorylation of EGFR L858R/T790M in tumors ([9]; treated for 5 days): significant decrease in phosphorylation | EGFR signaling in tumors after the last dosing ([10]; 4 hours after the last dosing): effective suppression of EGFR signaling | suppression of phospho-EGFR and phospho-AKT in tumors ([10]; daily for 3 days, PKC412 100 or 200 mg/kg, gefitinib 100 mg/kg): Significant suppression | body weight loss ([10]; daily oral 100 mg/kg): no significant body weight loss | tumor growth suppression compared to control-treated animals ([10]; day 12, daily oral PKC412 100 mg/kg): 50% | inhibition of ligand-induced EGFR phosphorylation [11]: not significantly inhibited | less activity against wild-type EGFR in drug-treated cells than irreversible EGFR inhibitors ([11]; PKC412 versus irreversible EGFR inhibitors): 500 fold | inhibition of EGFR L858R/T790M autophosphorylation [12]: potently inhibit | Cmax [13]: 2910 nM | concentration at 24 h [13]: 659 nM

CN1CCN(c2nc(C3=C(c4c[nH]c5ccccc45)C(=O)NC3=O)c3ccccc3n2)CC1 [sotrastaurin]
effect on growth [2]: failed to detectably affect growth

Cn1c2ccccc2c2c3c(c4c5ccccc5n(CCC#N)c4c21)CNC3=O [Gö6976]
apoptosis (PARP cleavage) ([14]; HCC827): promotes apoptosis | suppression of EGFR signaling ([14]; HCC827, 1 μM): suppressed EGFR signaling as efficiently as erlotinib | apoptosis (PARP cleavage) ([15]; PC-9): promotes apoptosis | suppression of EGFR signaling ([15]; PC-9, 1 μM): suppressed EGFR signaling as efficiently as erlotinib | IC50 [16]: 0.1 to 0.2 µM | growth inhibition in cell line screen [2, 21]: strongly growth inhibited | IC50 [17]: ~0.8 µM | growth inhibition in cell line screen [3, 21]: strongly growth inhibited

C=CC(=O)Nc1cccc(Oc2nc(Nc3ccc(N4CCN(C)CC4)cc3OC)ncc2Cl)c1 [WZ4002]
inhibition of ligand-induced EGFR phosphorylation [4]: similarly potent ability to inhibit | inhibition of EGFR T790M autophosphorylation [5]: potent suppression | concentrations as low as which inhibit EGFR T790M autophosphorylation [5]: 10 nM | tumor growth [7]: efficiently inhibited | inhibition of wild-type EGFR autophosphorylation ([18]; ATP, 15 min): ineffective | concentrations with detectable inhibition of wild-type EGFR ([18]; autophosphorylation): above 1 micromolar | inhibition of ligand-induced EGFR phosphorylation [19]: most potent inhibitor | inhibition of ligand-induced EGFR phosphorylation [11]: modestly affected | inhibition of EGFR L858R/T790M autophosphorylation [12]: potent suppression

CO[C@@H]1[C@H](N(C)C(=O)c2ccccc2)C[C@H]2O[C@]1(C)n1c3ccccc3c3c4c(c5c6ccccc6n2c5c31)C(=O)N[C@H]4O [CGP52421]
plasma concentration of metabolite [20]: 20000 to 25000 nM
